Our source for the Kd values is ChEMBL document CHEMBL1150439, “Synthesis and evaluation of dual domain macrocyclic FKBP12 ligands” (Bioorg Med Chem Lett, 1994).

The experiment addresses Peptidyl-prolyl cis-trans isomerase FKBP1A (Homo sapiens, UniProt P62942). Kind of experiment: Binding affinity towards FK506 binding protein 12 as measured by displacement of a radiolabeled FK506 analogue.

Sequence of Peptidyl-prolyl cis-trans isomerase FKBP1A (P62942 whole entry): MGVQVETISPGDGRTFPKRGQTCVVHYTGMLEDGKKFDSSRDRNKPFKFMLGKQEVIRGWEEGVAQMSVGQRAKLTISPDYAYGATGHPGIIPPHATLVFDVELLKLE

`C=CCC1/C=C(\C)CCOC(=O)OC(=O)CCCC(=O)C(=O)OC(=O)C(=O)N2CCCC[C@H]2C(=O)O[C@H](CCc2cccnc2)[C@H](C)CCC1=O` (some centres not stated): the affinity, expressed as Kd, was 2 µM.

In the case of `C=CCC1/C=C(\C)CCCOC(=O)OC(=O)C2CC[C@@](C)(O2)C(=O)C(=O)C(=O)OC(=O)C(=O)N2CCCC[C@H]2C(=O)O[C@H](CCc2cccnc2)[C@H](C)CCC1=O` (some centres not stated), binding was put at a Kd of 4 µM.

As for `C=CCC1/C=C(\C)CCOC(=O)OC(=O)C2CC[C@@](C)(O2)C(=O)C(=O)C(=O)OC(=O)C(=O)N2CCCC[C@H]2C(=O)O[C@H](CCc2cccnc2)[C@H](C)CCC1=O` (some centres not stated), binding was put at a Kd of 8 µM.

As for `C=CCC1/C=C(\C)CCCOC(=O)OC(=O)C2CC[C@@H](O2)C(=O)C(=O)C(=O)OC(=O)C(=O)N2CCCC[C@H]2C(=O)O[C@H](CCc2cccnc2)[C@H](C)CCC1=O` (some centres not stated), the Kd (as a rule, the concentration at which binding is half-saturated) amounted to 0.2 µM.

As to `C=CCC1/C=C(\C)CCOC(=O)OC(=O)C2CC[C@@H](O2)C(=O)C(=O)C(=O)OC(=O)C(=O)N2CCCC[C@H]2C(=O)O[C@H](CCc2cccnc2)[C@H](C)CCC1=O` (some centres not stated), binding was characterised by a dissociation constant (Kd) of 0.4 µM.

Turning to `C=CCC1/C=C(\C)CCOC(=O)OC(=O)CCC(=O)C(=O)OC(=O)C(=O)N2CCCC[C@H]2C(=O)O[C@H](CCc2cccnc2)[C@H](C)CCC1=O` (some centres not stated), the Kd came out at 5.5 µM. This Kd lies about 14-fold higher than the previous one.

On to `C=CCC1/C=C(\C)CCOC(=O)OC(=O)CCCCC(=O)C(=O)OC(=O)C(=O)N2CCCC[C@H]2C(=O)O[C@H](CCc2cccnc2)[C@H](C)CCC1=O` (some centres not stated), for which the Kd is 4.5 µM.
